The subject of the assay is BDF1 mice, intracerebral L1210 leukemia, survival T/C. Nature of the assay: NCI In Vivo Anticancer Drug Screen. Data for tumor model L1210 Leukemia (intracerebral) in B6D2F1 (BDF1) mice. The following applies: higher = longer survival. In short, it runs like this: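 Mice carrying transplanted tumour were dosed with compound; survival was recorded and expressed as treated-group value (T) divided by vehicle-control value (C).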

The mark [1] stands for this setting: endpoint: mean survival time, dose: 31.0 mg/kg/injection, schedule: Q01DX001 (ip), vehicle: other.

Several values for one entry are separate records, joined by “and”; a condition that tells them apart may be missing. Equal values may be shown once. Toxic doses and inconclusive results are not listed.

In the case of `CCOC(=O)C1CCC(NC(=O)N(CCCl)N=O)CC1` (stereo not drawn), the T/C by setting is: (endpoint: mean survival time, dose: 4.0 mg/kg/injection, schedule: Q01DX001 (ip), vehicle: other) 103 % of control and 113 % of control; (endpoint: mean survival time, dose: 8.0 mg/kg/injection, schedule: Q01DX001 (ip), vehicle: other) 110 % of control; (endpoint: mean survival time, dose: 14.0 mg/kg/injection, schedule: Q01DX001 (ip), vehicle: other) 118 % of control; under setting [1], 179 % of control and 203 % of control; (endpoint: mean survival time, dose: 33.0 mg/kg/injection, schedule: Q01DX001 (ip), vehicle: other) 169 % of control and 203 % of control; (endpoint: mean survival time, dose: 44.0 mg/kg/injection, schedule: Q01DX001 (ip), vehicle: other) 225 % of control. In addition, the T/C was 203 % of control and 239 % of control (endpoint: mean survival time, dose: 47.0 mg/kg/injection, schedule: Q01DX001 (ip), vehicle: other); 175 % of control and 303 % of control (endpoint: mean survival time, dose: 66.0 mg/kg/injection, schedule: Q01DX001 (ip), vehicle: other); 155 % of control (endpoint: mean survival time, dose: 67.0 mg/kg/injection, schedule: Q01DX001 (ip), vehicle: other); 151 % of control (endpoint: mean survival time, dose: 70.0 mg/kg/injection, schedule: Q01DX001 (ip), vehicle: other).

Consider `CN(N=O)C(=O)Nc1ccc(NC(=O)N(C)N=O)cc1`, for which the T/C (endpoint: mean survival time, dose: 4.5 mg/kg/injection, schedule: Q01DX001 (ip), vehicle: carboxymethylcellulose (CMC)) was 93 % of control; the T/C (endpoint: mean survival time, dose: 9.0 mg/kg/injection, schedule: Q01DX001 (ip), vehicle: carboxymethylcellulose (CMC)) is 98 % of control; the T/C (endpoint: mean survival time, dose: 18.0 mg/kg/injection, schedule: Q01DX001 (ip), vehicle: carboxymethylcellulose (CMC)) was 98 % of control.

As for `CS(=O)(=O)OCC(O)C(O)COS(C)(=O)=O` (stereo not drawn), the T/C reads like this: (endpoint: mean survival time, dose: 440.0 mg/kg/injection, schedule: Q01DX001 (ip), vehicle: carboxymethylcellulose (CMC)) 92 % of control and 97 % of control; (endpoint: mean survival time, dose: 670.0 mg/kg/injection, schedule: Q01DX001 (ip), vehicle: carboxymethylcellulose (CMC)) 101 % of control and 100 % of control; (endpoint: mean survival time, dose: 1000.0 mg/kg/injection, schedule: Q01DX001 (ip), vehicle: carboxymethylcellulose (CMC)) 102 % of control and 100 % of control.

With `CN(C)/N=N/c1nc[nH]c1C(N)=O`, the T/C is 106 % of control (endpoint: mean survival time, dose: 53.0 mg/kg/injection, schedule: Q01DX Z (ip), vehicle: carboxymethylcellulose (CMC)); 104 % of control (endpoint: mean survival time, dose: 80.0 mg/kg/injection, schedule: Q01DX Z (ip), vehicle: carboxymethylcellulose (CMC)); 112 % of control (endpoint: mean survival time, dose: 120.0 mg/kg/injection, schedule: Q01DX Z (ip), vehicle: carboxymethylcellulose (CMC)); 93 % of control (endpoint: mean survival time, dose: 180.0 mg/kg/injection, schedule: Q01DX Z (ip), vehicle: carboxymethylcellulose (CMC)); 101 % of control (endpoint: mean survival time, dose: 317.0 mg/kg/injection, schedule: Q01DX001 (ip), vehicle: carboxymethylcellulose (CMC)); 87 % of control (endpoint: mean survival time, dose: 482.0 mg/kg/injection, schedule: Q01DX001 (ip), vehicle: carboxymethylcellulose (CMC)). Besides, the T/C is 111 % of control (endpoint: median survival time, dose: 10.0 mg/kg/injection, schedule: Q01DX009 (ip), vehicle: carboxymethylcellulose (CMC)); 111 % of control (endpoint: median survival time, dose: 20.0 mg/kg/injection, schedule: Q01DX009 (ip), vehicle: carboxymethylcellulose (CMC)); 114 % of control (endpoint: median survival time, dose: 40.0 mg/kg/injection, schedule: Q01DX009 (ip), vehicle: carboxymethylcellulose (CMC)); 117 % of control (endpoint: median survival time, dose: 80.0 mg/kg/injection, schedule: Q01DX009 (ip), vehicle: carboxymethylcellulose (CMC)); 118 % of control (endpoint: median survival time, dose: 160.0 mg/kg/injection, schedule: Q01DX009 (ip), vehicle: carboxymethylcellulose (CMC)); 103 % of control (endpoint: median survival time, dose: 200.0 mg/kg/injection, schedule: Q01DX009 (ip), vehicle: carboxymethylcellulose (CMC)). Further, the T/C is 94 % of control (endpoint: median survival time, dose: 300.0 mg/kg/injection, schedule: Q01DX009 (ip), vehicle: carboxymethylcellulose (CMC)); 108 % of control (endpoint: median survival time, dose: 320.0 mg/kg/injection, schedule: Q01DX009 (ip), vehicle: carboxymethylcellulose (CMC)); 111 % of control (endpoint: median survival time, dose: 400.0 mg/kg/injection, schedule: Q01DX009 (ip), vehicle: carboxymethylcellulose (CMC)); 94 % of control (endpoint: median survival time, dose: 600.0 mg/kg/injection, schedule: Q01DX009 (ip), vehicle: carboxymethylcellulose (CMC)).

With `O=NN(CCCl)C(=O)NC1CC2CCC1C2` (stereo not drawn), the T/C runs as follows: (endpoint: mean survival time, dose: 14.5 mg/kg/injection, schedule: Q01DX001 (ip), vehicle: other) 124 % of control; (endpoint: mean survival time, dose: 26.0 mg/kg/injection, schedule: Q01DX001 (ip), vehicle: carboxymethylcellulose (CMC)) 196 % of control; (endpoint: mean survival time, dose: 29.25 mg/kg/injection, schedule: Q01DX001 (oral), vehicle: other) 162 % of control and 176 % of control and 191 % of control; (endpoint: mean survival time, dose: 39.0 mg/kg/injection, schedule: Q01DX001 (ip), vehicle: other) 236 % of control; (endpoint: mean survival time, dose: 41.0 mg/kg/injection, schedule: Q01DX001 (ip), vehicle: carboxymethylcellulose (CMC)) 247 % of control and 265 % of control; (endpoint: mean survival time, dose: 58.5 mg/kg/injection, schedule: Q01DX001 (oral), vehicle: other) 306 % of control and 356 % of control and 442 % of control. In addition, the T/C reads like this: (endpoint: mean survival time, dose: 62.0 mg/kg/injection, schedule: Q01DX001 (ip), vehicle: carboxymethylcellulose (CMC)) 303 % of control and 306 % of control; (endpoint: mean survival time, dose: 87.0 mg/kg/injection, schedule: Q01DX001 (ip), vehicle: other) 151 % of control; (endpoint: mean survival time, dose: 93.0 mg/kg/injection, schedule: Q01DX001 (ip), vehicle: carboxymethylcellulose (CMC)) 188 % of control and 268 % of control; (endpoint: mean survival time, dose: 117.0 mg/kg/injection, schedule: Q01DX001 (oral), vehicle: other) 111 % of control and 154 % of control and 294 % of control; (endpoint: mean survival time, dose: 139.0 mg/kg/injection, schedule: Q01DX001 (ip), vehicle: carboxymethylcellulose (CMC)) 105 % of control and 101 % of control.

With `O=NN(CCF)C(=O)NC1CSCSC1`, the T/C is 111 % of control (endpoint: mean survival time, dose: 3.7 mg/kg/injection, schedule: Q01DX001 (ip), vehicle: other); 120 % of control and 123 % of control (endpoint: mean survival time, dose: 7.0 mg/kg/injection, schedule: Q01DX001 (ip), vehicle: other); 163 % of control (endpoint: mean survival time, dose: 15.0 mg/kg/injection, schedule: Q01DX001 (ip), vehicle: other); 176 % of control (endpoint: mean survival time, dose: 28.0 mg/kg/injection, schedule: Q01DX001 (ip), vehicle: other); 177 % of control and 278 % of control under setting [1]; 291 % of control (endpoint: mean survival time, dose: 41.0 mg/kg/injection, schedule: Q01DX001 (ip), vehicle: other). Further, the T/C (endpoint: mean survival time, dose: 62.0 mg/kg/injection, schedule: Q01DX001 (ip), vehicle: other) is 290 % of control and 337 % of control.

Regarding `C[n+]1ccc(Nc2ccc(NC(=O)c3ccc(Nc4cc[n+](C)c5ccc(N)cc45)cc3)cc2)cc1`, the T/C was 93 % of control (endpoint: mean survival time, dose: 0.5 mg/kg/injection, schedule: Q01DX009 (ip), vehicle: Klucel (hydroxypropylcellulose) (HPC)); 106 % of control (endpoint: mean survival time, dose: 1.0 mg/kg/injection, schedule: Q01DX009 (ip), vehicle: Klucel (hydroxypropylcellulose) (HPC)); 103 % of control (endpoint: mean survival time, dose: 2.0 mg/kg/injection, schedule: Q01DX009 (ip), vehicle: Klucel (hydroxypropylcellulose) (HPC)); 110 % of control (endpoint: mean survival time, dose: 4.0 mg/kg/injection, schedule: Q01DX009 (ip), vehicle: Klucel (hydroxypropylcellulose) (HPC)); 122 % of control (endpoint: mean survival time, dose: 8.0 mg/kg/injection, schedule: Q01DX009 (ip), vehicle: Klucel (hydroxypropylcellulose) (HPC)).

With `Nc1nc(=O)n(C2OC(CO)C(O)C2O)cc1F` (stereo not drawn), the T/C was 116 % of control (endpoint: median survival time, dose: 1.0 mg/kg/injection, schedule: Q01DX009 (ip), vehicle: saline); 124 % of control (endpoint: median survival time, dose: 2.0 mg/kg/injection, schedule: Q01DX009 (ip), vehicle: saline); 124 % of control (endpoint: median survival time, dose: 4.0 mg/kg/injection, schedule: Q01DX009 (ip), vehicle: saline); 153 % of control (endpoint: median survival time, dose: 8.0 mg/kg/injection, schedule: Q01DX009 (ip), vehicle: saline); 173 % of control (endpoint: median survival time, dose: 8.0 mg/kg/injection, schedule: Q01DX009 (ip), vehicle: water); 179 % of control (endpoint: median survival time, dose: 16.0 mg/kg/injection, schedule: Q01DX009 (ip), vehicle: saline). Also, the T/C is, setting by setting: (endpoint: median survival time, dose: 16.0 mg/kg/injection, schedule: Q01DX009 (ip), vehicle: water) 212 % of control; (endpoint: median survival time, dose: 32.0 mg/kg/injection, schedule: Q01DX009 (ip), vehicle: saline) 201 % of control; (endpoint: median survival time, dose: 32.0 mg/kg/injection, schedule: Q01DX009 (ip), vehicle: water) 234 % of control; (endpoint: median survival time, dose: 64.0 mg/kg/injection, schedule: Q01DX009 (ip), vehicle: saline) 228 % of control; (endpoint: median survival time, dose: 64.0 mg/kg/injection, schedule: Q01DX009 (ip), vehicle: water) 247 % of control; (endpoint: median survival time, dose: 128.0 mg/kg/injection, schedule: Q01DX009 (ip), vehicle: water) 89 % of control. In addition, where the note is “endpoint: median survival time, dose: 512.0 mg/kg/injection, schedule: Q01DX009 (ip), vehicle: saline”, the T/C was 98 % of control.
